One data set concerns p-Erk (A375). Put plainly: Cell-based phosphorylation assay with electroblotting readout. The note with it: Homo sapiens, A-375; A375 cells, 1 hr. On the set-up: species or system human. An excerpt: Compounds of the present invention have been screened for their ability to inhibit all isoforms, both wild-type and mutant of RAF kinases (A-RAF, B-RAF and C-RAF) in general, and the mutant B-RAF (V600E) in particular in human cancer cells. A375 is a human melanoma cell line that harbors the most common B-RAF mutation-V600E found in human cancers. The ability of compounds to inhibit RAF kinases in this assay is correlated with the reduction of MEK and ERK phosphorylation, and is therefore a direct indicator of potential in vivo therapeutic activity.
Materials: A375 cells from ATCC were maintained at 37° C., 5% CO2 in DMEM media supplemented with 10% fetal bovine serum, penicillin/streptomycin and fungizone. (Invitrogen)
Methods: Test compounds were dissolved and diluted 1:1000 in DMSO. A375 cells were seeded in six-well tissue culture plates at 5-8×10^5 per well and cultured at 37° C. for 24 h. Cells were incubated with compounds for one hour before being lysed in EPage™ loading buffer (Invitrogen). Lysates were electrophoresed on 8% EPage™ gels and transferred to polyvinylidene difluoride membranes. After incubations with primary and secondary antibodies, the immunostained proteins were detected and quantitated by an Odyssey infrared imager (LI-COR). Analysis was performed by non-linear regression to generate a dose response curve. The calculated IC50 value was the concentration of the test compound that causes a 50% decrease in phospho-MEK and phospho-ERK levels. The primary antibodies used were anti-MEK (Stressgen), anti-ERK (BD Biosciences), anti-phospho-ERK and anti-phospho-MEK (Cell Signaling). The secondary antibodies used were IRDYE800 anti-rabbit, IRDYE 800 anti-mouse (Rockland), AlexaFluor680 anti-mouse and AlexaFluoro680 anti-rabbit (Invitrogen).
A375 cells were treated with 0, 12, 37, 111, 333 and 1000 nM of indicated compounds for 1 hr. The levels of Phospho-ERK and total-ERK were accessed by immunoblotting.

A short description of data set [1]: Equilibrium solubility at varying pH (shake flask). The class given is physicochemical. The settings on record: for solubility: 25 °C, thermodynamic from solid. As to the method:
Solubility of the compounds was determined by the traditional shake flask method. Aliquots of solid compounds were mixed with an appropriate buffer of the desired pH and equilibrated by shaking at room temperature (˜25° C.) for 6-24 hours. Following aqueous buffers were used for the pH control: 0.1N HCl pH=1.2, 50 mM Lactate buffer pH=3.0, 50 mM Acetate buffer pH=5.0, and 100 mM Phosphate buffer pH 7.4. After equilibration, samples were filtered through a 0.45 um filter and analyzed by HPLC/UV against the calibration curves of standard solution.

Another data set has as its system 786-O. Put plainly: Cell growth inhibition assay (MTS). The class given is cell-based. The note with it: Homo sapiens, 786-0, kidney. On the procedure:
(§1) Compounds of the present invention have been tested for activity against a variety of cancer cell lines. The ability of compounds to inhibit cell growth in this assay is correlated with the reduction of dehydrogenase enzyme activity found in metabolically active cells.
(§2) Materials: A large variety of cancer cells from ATCC were maintained at 37° C., 5% CO2 in DMEM media supplemented with 10% fetal bovine serum, penicillin/streptomycin and fungizone (Invitrogen). NCM460 (Incell), a normal colon epithelial cell line, and human mammary epithelial cells (Cambrex) were maintained at 37° C., 5% CO2 in DMEM and HEBM media (Cambrex), respectively.
(§3) Methods: Test compounds were dissolved and diluted to 300× in DMSO then diluted 1:40 in DMEM. Cells were seeded into 96-well tissue culture plates at 1-5×10^3 per well and cultured at 37° C. for 24 h. Cells were incubated with test compounds for 72 hours followed by incubation with tetrazolium compound (3-(4,5-dimethylthiazol-2-yl)-5-(3-carboxymethoxyphenyl)-2-(4-sulfophenyl)-2H-tetrazolium, inner salt; MTS) and the electron coupling reagent, phenazine methosulfate (PMS) for 4 hr. […] The measurement of the absorbance of the formazan was assessed using an ENVISION™ (Perkin Elmer) microplate reader at 492 nm. The calculated IC50 value is the concentration of the test compound that causes a 50% decrease in the absorbance.

The next data set concerns ASPC-1. The data set can be described thus: Cell growth inhibition assay (MTS). The class given is cell-based. The note with it: Homo sapiens, ASPC1; ASPC-1, pancreas. As to the method:
as §1, §2, §3

For a further data set, the system named is BDCM. The data set can be described thus: Cell growth inhibition assay (MTS). The class given is cell-based. The note with it: Homo sapiens, lymphoblast. On the procedure: as §1, §2, §3
The subject of another data set is CC5292. Put plainly: Cell growth inhibition assay (MTS). The class given is cell-based. The settings on record: Homo sapiens; CC5292, MiT. As to the method:
as §1, §2, §3

The next data set has as its system CFPPAC-1. The data set can be described thus: Cell growth inhibition assay (MTS). The class given is cell-based. The settings on record: Homo sapiens; CFPPAC-1, pancreasductal adenocarcinoma; cystic fibrosis. As to the method:
as §1, §2, §3

The subject of another data set is HCT-116. The data set can be described thus: Cell growth inhibition assay (MTS). The class given is cell-based. The settings on record: Homo sapiens; HCT-116, colon. As to the method:
as §1, §2, §3

The subject of a further data set is HPAF-II. Put plainly: Cell growth inhibition assay (MTS). The class given is cell-based. The note with it: Homo sapiens, pancreas. On the procedure: as §1, §2, §3
The next data set relates to HT-1080. The data set can be described thus: Cell growth inhibition assay (MTS). The class given is cell-based. The note with it: Homo sapiens; HT-1080, fibrosarcoma. On the procedure: as §1, §2, §3
Another data set has as its system K562. Put plainly: Cell growth inhibition assay (MTS). The class given is cell-based. The settings on record: Homo sapiens; K562, CML. As to the method:
as §1, §2, §3

The subject of another data set is LOVO. Put plainly: Cell growth inhibition assay (MTS). The class given is cell-based. The note with it: Homo sapiens, colorectal carcinoma. As to the method: as §1, §2, §3
A further data set concerns MDAMB-231. Put plainly: Cell growth inhibition assay (MTS). The settings on record: Homo sapiens, MDA-MB-231; MDAMB-231, breast adenocarcinoma. The class given is cell-based. As to the method:
as §1, §2, §3

The next data set relates to MKN-45. Put plainly: Cell growth inhibition assay (MTS). The class given is cell-based. The note with it: Homo sapiens; MKN-45, stomach. On the procedure:
as §1, §2, §3

A further data set deals with NCI-H441. The data set can be described thus: Cell growth inhibition assay (MTS). In kind it is cell-based. The note with it: Homo sapiens; NCI-H441, lung papillary adenocarcinoma. As to the method:
as §1, §2, §3

Another data set deals with NCI-H661. The data set can be described thus: Cell growth inhibition assay (MTS). The note with it: Homo sapiens; NCI-H661, large cell lung carcinoma. In kind it is cell-based. On the procedure:
as §1, §2, §3

The next data set relates to RT112. The data set can be described thus: Cell growth inhibition assay (MTS). In kind it is cell-based. The note with it: RT-112; RT112, human urinary bladder cell carcinoma. On the procedure: as §1, §2, §3
For the next data set, the system named is RT4. The data set can be described thus: Cell growth inhibition assay (MTS). The class given is cell-based. The note with it: RT-4; RT4, human urinary bladder cell carcinoma. As to the method: as §1, §2, §3
The subject of another data set is SKMES-1. Put plainly: Cell growth inhibition assay (MTS). The note with it: Homo sapiens, SK-MES-1; SKMES-1, squamous cell carcinoma. In kind it is cell-based. On the procedure:
as §1, §2, §3

A further data set deals with U937. The data set can be described thus: Cell growth inhibition assay (MTS). The settings on record: Homo sapiens, U-937; U937, monocyte histocytic lymphoma. The class given is cell-based. As to the method: as §1, §2, §3
The mark [2] stands for this setting: aqueous buffer (0.1N HCl), pH 1.2, simulated gastric fluid.

In brackets after ≈: the same amount, converted by molar mass.

As a reminder, the EC50 is the midpoint of the concentration-response curve. A high value points to lower potency in that assay. As usually defined, the solubility is the dissolved amount per volume that the medium holds. Read a high solubility as much dissolved substance. As a reminder, the GI50 is the concentration at which growth is held to half of that of the control. Higher therefore signals less potent growth inhibition.

Turning to `Cn1ccc(S(=O)(=O)N2CCC[C@@H](Nc3nccc(-c4c(-c5cccc(OCOP(=O)(O)O)c5)nc5occn45)n3)C2)n1` [Compound 19, (R)-(3-(5-(2-(1-(1-methyl-1H-pyrazol-3-ylsulfonyl)piperidin-3-ylamino)pyrimidin-4-yl)imidazo[2,1-b]oxazol-6-yl)phenoxy)methyl dihydrogen phosphate], in the data set on p-Erk (A375), the EC50 was determined as 0.095 µM. Moreover, the solubility is greater than 13 mg/mL in data set [1] (aqueous buffer (50 mM acetate buffer), aqueous buffer, pH 5.0); greater than 300 mg/mL in data set [1] (aqueous buffer (100 mM phosphate buffer), pH 7.4, aqueous buffer); less than 1.3 mg/mL in data set [1] (setting [2]). In addition, in [1] (at or near biologically relevant pH), the “solubility in aqueous solution compared with compound 17” value is “dramatically more soluble”. Besides, the GI50 was determined as 18.2 µM with 786-O; 6.33 µM in the data set with ASPC-1; 32.7 µM in the data set on BDCM; 8.2 µM in the data set with CC5292; 11.9 µM with CFPPAC-1; 6.61 µM with HCT-116. The concentration for 50% growth inhibition (GI50) came to 5.78 µM in the data set on HPAF-II; 26.8 µM in the data set on HT-1080; 9.86 µM in the data set on K562; 2.17 µM with LOVO; 28.2 µM in the data set with MDAMB-231; 21.4 µM in the data set on MKN-45. In addition, the GI50 is 17.8 µM in the data set with NCI-H441; 16.2 µM with NCI-H661; 1.92 µM with RT112; 10 µM in the data set with RT4; 9.02 µM with SKMES-1; 20.2 µM in the data set on U937.
For the compound `Cn1ccc(S(=O)(=O)N2CCC[C@@H](Nc3nccc(-c4c(-c5cccc(O)c5)nc5occn45)n3)C2)n1` [Compound 17, (R)-3-(5-(2-(1-(1-methyl-1H-pyrazol-3-ylsulfonyl)piperidin-3-ylamino)pyrimidin-4-yl)imidazo[2,1-b]oxazol-6-yl)phenol], in the data set with p-Erk (A375), a half-maximal effect (EC50) was put at 0.093 µM. The solubility in [1] (aqueous buffer (50 mM lactate buffer), aqueous buffer, pH 3.0) was 0.01 mg/mL (≈ 19.2 µM); in [1] (setting [2]) it was 1.05 mg/mL (≈ 2020 µM). Further, the Aqueous solubility entry in [1] (pH 5.0) and in data set [1] (pH 7.4) was “insoluble” throughout.

These data come from patent US20100183600A1, “RAF Inhibitors and Their Uses” (ARQULE, INC., priority 2008, published 2010).
